From the SangsterLogP compilation

Assay: method code SF-AS, from DOI: 10.1021/jf00090a013
A logP of 2.3 was found for CNC(=O)N(C)C(=O)Nc1cc([N+](=O)[O-])ccc1F in this work.
A logP of 4.58 was found for CNC(=O)N(C)C(=O)Nc1cc(C2CCCCC2)ccc1F in this work.
A logP of 3.08 was found for CNC(=O)N(C)C(=O)Nc1cc(OC(C)C)ccc1F in this work.
A logP of 2.28 was found for CNC(=O)N(C)C(=O)Nc1cc(C(=O)OC)ccc1F in this work.
A logP of 2.12 was found for CNC(=O)N(C)C(=O)Nc1ccccc1F in this work.
A logP of 3.23 was found for CCc1ccc(F)c(NC(=O)N(C)C(=O)NC)c1 in this work.
A logP of 3.58 was found for CNC(=O)N(C)C(=O)Nc1cc(I)ccc1F in this work.
A logP of 3.53 was found for CNC(=O)N(C)C(=O)Nc1cc(C(C)C)ccc1F in this work.
A logP of 4.46 was found for CCC(CC)c1ccc(F)c(NC(=O)N(C)C(=O)NC)c1 in this work.

Assay: not given
A logP of 3.9 was found for CNC(=O)N(C)C(=O)Nc1cc(Cc2ccccc2)ccc1F in this work.
A logP of 3.96 was found for CNC(=O)N(C)C(=O)Nc1cc(C(C)(C)C)ccc1F in this work.
A logP of 1.87 was found for CNC(=O)N(C)C(=O)Nc1cc(S(=O)(=O)C(C)C)ccc1F in this work.
A logP of 2.14 was found for CNC(=O)N(C)C(=O)Nc1cc(OC)ccc1F in this work.
A logP of 2.4 was found for CNC(=O)N(C)C(=O)Nc1cc(F)ccc1F in this work.
A logP of 1.82 was found for CNC(=O)N(C)C(=O)Nc1cc(C(C)=O)ccc1F in this work.
A logP of 3.78 was found for CNC(=O)N(C)C(=O)Nc1cc(-c2ccccc2)ccc1F in this work.
